Data published in publication PMC10064330, “Reversible Dual-Covalent Molecular Locking of the 14-3-3/ERRγ Protein–Protein Interaction as a Molecular Glue Drug Discovery Approach” (Journal of the American Chemical Society, 2023).

Target: T1, 14-3-3γ/ERRγ complex (Homo sapiens, UniProt P61981+P62508)
T1 construct: made in house; host or cells: E. coli NiCo21 (DE3)
Assay: Differential scanning fluorimetry (DSF)
Type: binding
Conditions: 5 μM 14-3-3γ, 200 μM compound, relative to DMSO; for ΔTm at 200 µM: read-out: increase in 14-3-3γ melting temperature (ΔTm)
Protocol: We screened the apo-14-3-3γ, the binary 14-3-3γ/ERRγ (10 eq.) complex, and the ternary complex of 14-3-3γ, the ERRγ phosphopeptide, and compounds 1 and 3–10 (Figure 2c and Figures S4 and S5). The DSF data corroborated the enhanced stabilization observed in the FA data, with molecular locks 5 and 10 eliciting 14-3-3γ melting temperature increases of 4.7 ± 0.2 and 6.0 ± 0.3 °C, respectively (Figure 2c).
Figure S4. Differential Scanning Fluorimetry. Raw melting curves (a-c, g-i) and derivatives of these melting curves (d-f, j-l) of 14-3-3γ (5 µM) with ERRγ (25 µM) incubated with either DMSO (black) or 200 µM compound 1-10.
(1 picture or pasted object on this page, not shown here)
Figure S5. Differential Scanning Fluorimetry. Raw melting curves (a-c) and derivatives of these melting curves (d-f) of 14-3-3γ (5 µM) with ERRγ (25 µM) incubated with either DMSO (black) or 200 µM compound 1-10. (g) […]
Differential Scanning Fluorimetry (DSF)
Different Scanning Fluorimetry (DSF) assays were performed using 40 µL samples containing 5 µM 14-3-3γ, 50 µM ERRγ pS179 9-mer peptide, 200 µM compound (or 1% DMSO) and 5x ProteoOrange (Lumiprobe, 5000x stock in DMSO) in 10 mM Hepes, 150 mM NaCl, 50 µM TCEP (pH 8.0). The samples were heated from 35 °C to 79 °C at a rate of 0.3 °C per 15 s in a CFX96 Touch Real-Time PCR Detection System (Bio-Rad). Fluorescence intensity was determined using excitation 470/40 nm and emission 570/20 nm filters. Based on these melting curves, the negative derivative melting curve is obtained from which the melting temperature Tm was determined. ΔTm values represent the differences in melting temperature relative to the DMSO control. All described melting temperatures are based on three independent experiments from which the average and standard deviations were determined using excel. […]
Washing steps were repeated three more times. […] Fluorescence was measured using the Tecan SPARK plate reader at room temperature with an excitation wavelength of 485 nm and an emission wavelength of 535 nm. Furthermore, fluorescence anisotropy of each sample was measured using the Tecan Infinite F500 plate reader at room temperature (lex: 485 ± 20 nm; lem: 535 ± 25 nm; mirror: Dichroic 510; flashes: 20; integration time: 50 ms; settle time: 0 ms; gain: 50; and Z-position: calculated from well) to determine whether all 14 -3-3γ was captured by the magnetic beads (should results in low anisotropy values in samp les after capturing in comparison to samples […]

T1 sequence (P61981 whole entry, other chains not shown): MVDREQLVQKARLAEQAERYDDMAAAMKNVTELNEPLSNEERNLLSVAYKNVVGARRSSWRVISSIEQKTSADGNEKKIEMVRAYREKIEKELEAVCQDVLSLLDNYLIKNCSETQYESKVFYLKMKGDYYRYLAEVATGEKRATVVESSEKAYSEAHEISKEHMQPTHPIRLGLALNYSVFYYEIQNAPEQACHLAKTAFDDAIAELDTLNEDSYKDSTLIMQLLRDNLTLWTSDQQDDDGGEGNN

CN(C)CCSSCCN(C)C(=O)c1cccc(F)c1 [compound 1, reference compound]
decrease in melting temperature (ERRγ): 2.6 °C

CN(C)CCNC(=O)c1ccc(C=O)c(F)c1 [compound 3]
increase in 14-3-3γ melting temperature (ΔTm) (ERRγ 10 eq.): no significant change

CN(C)CCSSCCN(C)C(=O)c1ccc(C=O)c(F)c1 [compound 5]
ΔTm at 200 µM (ERRγ 10 eq.): 4.7 ± 0.2 °C

CN(C)CCSSCCN(C)C(=O)c1cc(Br)cc(C=O)c1 [compound 10]
ΔTm at 200 µM (ERRγ 10 eq.): 6 ± 0.3 °C
